Earlier results in patent US5990112A, “Inhibitors of metalloproteases pharmaceutical compositions comprising same and methods of their use” (Affymax Technologies N.V., priority 1996, dated 1999).

How the values were obtained:
[1] = molecular target: human rheumatoid synovial collagenase
[2] = molecular target: rabbit bone proteoglycanase; conditions: Delaisse et al. 1985

IC50 [1]: < 8 µM
IC50 [2]: 0.5 µM
SMILES: CNC(=O)[C@H](Cc1ccc(OC)cc1)NC(=O)[C@H](CC(C)C)NC(CCNC(=O)OCc1ccccc1)C(=O)O (stereo partly drawn) [N-[3-(benzyloxy-carbonyl)amino-1-carboxy-n-propyl]-L-leucyl-O-methyl-L-tyrosine, N-methylamide]
